In patent US11008295B2, “Compounds having antiinfective, antitumoral and antifungal activity” (priority 2017, dated 2021):

How the values were obtained:
Test in all cases: Kirby-Bauer disk diffusion susceptibility test
T. pulmonis = format: cell-based, Tsukamurella pulmonis
Method: (§1) Bacterial strains, from clinical origin, were supplied by the National Center for Microbiology, Institute of Health Carlos III (Majadahonda, Madrid). They are detailed in Table I.
(§2) Bacterial cells suspension in sterile saline was prepared from a culture of 24-72 h, depending on bacterial species, in Mueller-Hinton Agar with 5% sheep blood. Each suspension was adjusted to a fixed size inoculum of 1-5×10^8 CFU/ml with a spectrophotometer (Ferraro, M J National Committee for Clinical Laboratory Standards. 2000).
(§3) Kirby-Bauer disk diffusion susceptibility test protocol was utilized to determine the sensitivity or resistance of pathogenic bacteria against the compounds and others antibiotics. The absence of growth around the disks is an indirect measure of the ability of this compound to inhibit an organism (Kirby, W. et al., Antibiotics Annu. 1956-1957:892). After 18 to 72 hours of incubation at […], with or without CO2, under aerobic or anaerobic conditions, depending on the bacterial species, halo of growth inhibition were obtained and evaluated.
(§4) Interpretation of susceptibility and resistance was based on the presence or absence of a zone of inhibition surrounding the disk. Kirby-Bauer disk diffusion susceptibility test is a common method which uses antibiotic-impregnated wafers to test whether bacteria are affected by antibiotics. The size of the zone of inhibition depends on how effective the antibiotic is at stopping the growth of the bacterium. A stronger antibiotic will create a larger zone, because a lower concentration of the antibiotic is enough to stop growth.

S. aureus = format: cell-based
Method: as §1, §2, §3, §4

S. epidermidis = format: cell-based
Method: as §1, §2, §3, §4

E. faecium = format: cell-based
Method: as §1, §2, §3, §4

E. faecalis = format: cell-based
Method: as §1, §2, §3, §4

A. baumannii = format: cell-based
Method: as §1, §2, §3, §4

P. aeruginosa = format: cell-based
Method: as §1, §2, §3, §4

N. cyriacigeorgica = format: cell-based
Method: as §1, §2, §3, §4

E. coli = format: cell-based
Method: as §1, §2, §3, §4

N. carnea = format: cell-based, Nocardia carnea
Method: as §1, §2, §3, §4

B. cereus = format: cell-based, Bacillus cereus
Method: as §1, §2, §3, §4

M. chelonae = format: cell-based; conditions: M. chelonae strain 870, isolation year 2011
Method: as §1, §2, §3, §4

M. fortuitum = format: cell-based; conditions: M. fortuitum strain 1080, isolation year 2011
Method: as §1, §2, §3, §4

M. abscessus = format: cell-based, Mycobacterium abscessus; conditions: M. abscessus strain 690, isolation year 2012
Method: as §1, §2, §3, §4

[1] = T. pulmonis strain 40, isolation year 2015
[2] = T. pulmonis strain 1991, isolation year 2009
[3] = S. aureus strain 282, isolation year 2005
[4] = S. aureus strain 890, isolation year 2010
[5] = S. epidermidis strain 188, isolation year 2009
[6] = S. epidermidis strain 982, isolation year 2006
[7] = E. faecium strain 26, isolation year 2012
[8] = E. faecium strain 209, isolation year 2015
[9] = E. faecalis strain 52, isolation year 2006
[10] = E. faecalis strain 1052, isolation year 2008
[11] = A. baumannii strain 300, isolation year 2001
[12] = A. baumannii strain 1301, isolation year 2009
[13] = P. aeruginosa strain 96, isolation year 2014
[14] = P. aeruginosa strain 115, isolation year 2013
[15] = N cyriacigeorgica strain 199, isolation year 2005
[16] = N. cyriacigeorgica strain 30, isolation year 2005
[17] = E. coli strain 29, isolation year 2012
[18] = E. coli strain 305, isolation year 2008
[19] = N. carnea strain 40, isolation year 2011
[20] = N. carnea strain 769, isolation year 2009
[21] = B. cereus strain 25, isolation year 2014
[22] = B. cereus strain 182, isolation year 2013
Also: key: I = intermediate activity; S = susceptibility; R = Resistance.

Compound | Sensitivity or resistance of the strain to the antibiotic (T. pulmonis; [1]) | Sensitivity or resistance of the strain to the antibiotic (T. pulmonis; [2]) | Sensitivity or resistance of the strain to the antibiotic (S. aureus; [3]) | Sensitivity or resistance of the strain to the antibiotic (S. aureus; [4]) | Sensitivity or resistance of the strain to the antibiotic (S. epidermidis; [5]) | Sensitivity or resistance of the strain to the antibiotic (S. epidermidis; [6]) | Sensitivity or resistance of the strain to the antibiotic (E. faecium; [7]) | Sensitivity or resistance of the strain to the antibiotic (E. faecium; [8]) | Sensitivity or resistance of the strain to the antibiotic (E. faecalis; [9]) | Sensitivity or resistance of the strain to the antibiotic (E. faecalis; [10]) | Sensitivity or resistance of the strain to the antibiotic (A. baumannii; [11]) | Sensitivity or resistance of the strain to the antibiotic (A. baumannii; [12]) | Sensitivity or resistance of the strain to the antibiotic (P. aeruginosa; [13]) | Sensitivity or resistance of the strain to the antibiotic (N. cyriacigeorgica; [15]) | Sensitivity or resistance of the strain to the antibiotic (N. cyriacigeorgica; [16]) | Sensitivity or resistance of the strain to the antibiotic (E. coli; [17]) | Sensitivity or resistance of the strain to the antibiotic (E. coli; [18]) | Sensitivity or resistance of the strain to the antibiotic (N. carnea; [19]) | Sensitivity or resistance of the strain to the antibiotic (N. carnea; [20]) | Sensitivity or resistance of the strain to the antibiotic (B. cereus; [21]) | also measured
NCC[C@H](O)C(=O)N[C@@H]1C[C@H](N)[C@@H](O[C@H]2O[C@H](CN)[C@@H](O)[C@H](O)[C@H]2O)[C@H](O)[C@H]1O[C@H]1O[C@H](CO)[C@@H](O)[C@H](N)[C@H]1O [AMK, Amikacin] | R | S | S | S | S | S | S | R | S | S | R | S | S | R | S | S | S | R | S | – | Sensitivity or resistance of the strain to the antibiotic (P. aeruginosa; [14]): S
CO/N=C(\C(=O)N[C@@H]1C(=O)N2C(C(=O)O)=C(CSc3nc(=O)c(O)nn3C)CS[C@H]12)c1csc(N)n1 [CEF, Ceftriazone] | – | – | – | – | – | – | – | – | – | – | R | R | R | – | – | – | – | – | – | – | –
CCC[C@@H]1C[C@@H](C(=O)N[C@@H]([C@H]2O[C@H](SC)[C@H](O)[C@@H](O)[C@H]2O)[C@H](C)Cl)N(C)C1 [CLI, Clindamycin] | – | – | R | R | S | R | – | – | – | – | – | – | – | – | – | – | – | – | – | R | Sensitivity or resistance of the strain to the antibiotic (B. cereus; [22]): R
CO/N=C(\C(=O)N[C@@H]1C(=O)N2C(C(=O)O)=C(COC(C)=O)CS[C@H]12)c1csc(N)n1 [CTX, Cefotaxime] | R | S | – | – | – | – | R | R | R | R | – | – | S | R | S | S | R | S | S | – | Sensitivity or resistance of the strain to the antibiotic (P. aeruginosa; [14]): S
C[C@@H](O)[C@H]1C(=O)N2C(C(=O)O)=C(S[C@@H]3CN[C@H](C(=O)N(C)C)C3)[C@H](C)[C@H]12 [MER, Meropenem] | – | – | – | – | – | – | – | – | – | – | R | S | R | – | – | – | – | – | – | – | –
CO[C@H]1/C=C/O[C@@]2(C)Oc3c(C)c(O)c4c(O)c(c(/C=N/N5CCN(C)CC5)c(O)c4c3C2=O)NC(=O)/C(C)=C\C=C\[C@H](C)[C@H](O)[C@@H](C)[C@@H](O)[C@@H](C)[C@H](OC(C)=O)[C@@H]1C [RIF, Rifampicin] | – | – | – | – | – | – | – | – | – | – | – | – | – | – | – | – | – | – | – | S | Sensitivity or resistance of the strain to the antibiotic (B. cereus; [22]): S
CN(C)[C@@H]1C(O)=C(C(N)=O)C(=O)[C@@]2(O)C(O)=C3C(=O)c4c(O)cccc4[C@@](C)(O)[C@H]3C[C@@H]12 [TET, Tetracycline] | – | – | S | R | S | S | – | – | – | – | – | – | – | – | – | – | – | – | – | R | Sensitivity or resistance of the strain to the antibiotic (B. cereus; [22]): S
NC[C@H]1O[C@H](O[C@H]2[C@H](O)[C@@H](O[C@H]3O[C@H](CO)[C@@H](O)[C@H](N)[C@H]3O)[C@H](N)C[C@@H]2N)[C@H](N)C[C@@H]1O [TOB, Tobramycin] | – | – | – | – | – | – | – | – | – | – | S | S | S | – | – | – | – | – | – | – | –
CN[C@H](CC(C)C)C(=O)N[C@H]1C(=O)N[C@@H](CC(N)=O)C(=O)N[C@H]2C(=O)N[C@H]3C(=O)N[C@H](C(=O)N[C@H](C(=O)O)c4cc(O)cc(O)c4-c4cc3ccc4O)[C@H](O)c3ccc(c(Cl)c3)Oc3cc2cc(c3O[C@@H]2O[C@H](CO)[C@@H](O)[C@H](O)[C@H]2O[C@H]2C[C@](C)(N)[C@H](O)[C@H](C)O2)Oc2ccc(cc2Cl)[C@H]1O [VAN, Vancomycin] | – | – | S | S | S | S | I | S | S | S | – | – | – | – | – | – | – | – | – | S | Sensitivity or resistance of the strain to the antibiotic (B. cereus; [22]): S
Amoxicillin/Clavulanate [A/C] | R | S | – | – | – | – | – | – | – | – | – | – | – | R | R | S | R | S | S | – | –
Cotrimoxazole [SxT] | R | S | – | – | – | – | – | – | – | – | – | – | – | S | S | – | – | R | R | – | Sensitivity or resistance of the strain to the antibiotic (M. chelonae): R; Sensitivity or resistance of the strain to the antibiotic (M. fortuitum): S; Sensitivity or resistance of the strain to the antibiotic (M. abscessus): S
Gentamicin | – | – | R | R | S | R | S | S | S | S | – | – | – | – | – | S | S | – | – | – | –
